Assay: Effect of relative humidity on polymorphic forms of Compound 10 (monitored by XRPD)
Format: physicochemical
Conditions: for Stability at 0% RH: relevant condition for storage and further processing; for Form conversion at 33% RH: Form A only after at least 2 weeks; for Description of polymorph (stability / conditions of formation): RH = relative humidity; for Form conversion at 97% RH and above: RH of 97% and above
Procedure: Studies were performed to identify the different polymorphic forms of Compound 10 drug substance. Seven polymorphs of Compound 10 in total have been identified (TABLE 1).
Compound 10 is hygroscopic and is therefore packaged and stored at conditions that inhibit moisture uptake. Experiments were performed to understand the effect of relative humidity on various polymorphic forms of Compound 10. Form A and Form B were subjected to increasing relative humidity (TABLE 2) and monitored using XRPD to evaluate polymorphism.
Forms A, B, C, and D were characterized by X-ray powder diffraction (XRPD). XRPD diffractograms were collected with a PANalytical X'Pert PRO MPD® diffractometer using an incident beam of Cu radiation produced using an Optix long, fine-focus source. An elliptically graded multilayer mirror was used to focus Cu Kα X-rays through the specimen and onto the detector. Prior to the analysis, a silicon specimen (NIST SRM 640e) was analyzed to verify the observed position of the Si 111 peak is consistent with the NIST-certified position. For the determination of solid forms under the environmental conditions surveyed in EXAMPLE 6, samples of Compound 10 were stored within environmental chambers maintained at specific relative humidity conditions. A specimen of the sample was sandwiched between 3-μm-thick Etnom® films within these environmental chambers. Once prepared, the test article was removed from the environmental chamber and analyzed in transmission geometry without undue delay. A beam-stop, short antiscatter extension, and antiscatter knife edge were used to minimize the background generated by air. Soller slits for the incident and diffracted beams were used to minimize broadening from axial divergence. Diffraction patterns were collected using a scanning position-sensitive detector (X'Celerator) located 240 mm from the specimen and Data Collector software v. 2.2b.

For `Nc1ncn([C@H]2C[C@H](OP(=O)([O-])OC[C@H]3O[C@@H](n4cnc5c(=O)[nH]c(N)nc54)C[C@@H]3O)[C@@H](CO)O2)c(=O)n1.[Na+]` [Compound 10, guadecitabine sodium], which Hygroscopicity is on record?
Its Hygroscopicity is “hygroscopic”.

What does the source list for `Nc1ncn([C@H]2C[C@H](OP(=O)([O-])OC[C@H]3O[C@@H](n4cnc5c(=O)[nH]c(N)nc54)C[C@@H]3O)[C@@H](CO)O2)c(=O)n1.[Na+]` [Form A, guadecitabine sodium]?
Stability at 0% RH: stable; Duration of stability at 33% RH (33% RH): at least 2 weeks; Form conversion at 33% RH (33% RH): converted to Form K; Description of polymorph (stability / conditions of formation): Stable form at 0% RH

Which results are given for `Nc1ncn([C@H]2C[C@H](OP(=O)([O-])OC[C@H]3O[C@@H](n4cnc5c(=O)[nH]c(N)nc54)C[C@@H]3O)[C@@H](CO)O2)c(=O)n1.[Na+]` [Form B, guadecitabine sodium]?
Stability at 0% RH: stable; Form conversion at 33% RH (33% RH): converted to Form H; Polymorph observed at 97% RH (97% relative humidity, XRPD): Mesophase; Description of polymorph (stability / conditions of formation): Stable form at 0% RH; Form obtained on increasing RH (RH increased beyond 33%): formation of Form D; Form conversion at 97% RH and above: deliquescence to afford a mesophase

Which “Description of polymorph (stability / conditions of formation)” value does the source give for `Nc1ncn([C@H]2C[C@H](OP(=O)([O-])OC[C@H]3O[C@@H](n4cnc5c(=O)[nH]c(N)nc54)C[C@@H]3O)[C@@H](CO)O2)c(=O)n1.[Na+]` [Form C, guadecitabine sodium] here?
The value was “Formed from ethanolic slurry of Form A”.

For `Nc1ncn([C@H]2CC(OP(=O)([O-])OC[C@H]3O[C@@H](n4cnc5c(=O)[nH]c(N)nc54)CC3O)[C@@H](CO)O2)c(=O)n1.[Na+]` (some centres unmarked) [Form D, guadecitabine sodium], which “Description of polymorph (stability / conditions of formation)” value is on record?
Its value is “Formed from Form B at 58% RH”.

For `Nc1ncn([C@H]2C[C@H](OP(=O)([O-])OC[C@H]3O[C@@H](n4cnc5c(=O)[nH]c(N)nc54)C[C@@H]3O)[C@@H](CO)O2)c(=O)n1.[Na+]` [Form H, guadecitabine sodium], which “Description of polymorph (stability / conditions of formation)” value is on record?
The value was “Formed from Form B at 33% RH”.

With `Nc1ncn([C@H]2C[C@H](OP(=O)([O-])OC[C@H]3O[C@@H](n4cnc5c(=O)[nH]c(N)nc54)C[C@@H]3O)[C@@H](CO)O2)c(=O)n1.[Na+]` [Form K, guadecitabine sodium] as the compound, how does the “Description of polymorph (stability / conditions of formation)” value read?
Its value is “Formed from Form A at 58% RH”.

What about the “Form conversion at 97% RH and above” value of the same compound?
The value was “converted to Form L”.

For `Nc1ncn([C@H]2CC(OP(=O)([O-])OC[C@H]3O[C@@H](n4cnc5c(=O)[nH]c(N)nc54)CC3O)[C@@H](CO)O2)c(=O)n1.[Na+]` (some centres unmarked) [Form L, guadecitabine sodium], which “Description of polymorph (stability / conditions of formation)” value is on record?
Its value is “Formed from Form A at 97% RH”.

From patent publication US20220144881A1, “COMPOUNDS AND METHODS FOR MANUFACTURE OF HYPOMETHYLATING AGENTS” (priority 2020, published 2022)
